# Earlier results in US20040072764A1, “Composition, in particular cosmetic, containing 7-hydroxy dhea and/or 7-keto dhea and at least an isoflavonoid” (priority 2000, published 2004).
# Legend:
# human keratinocytes = details: cited from WO 98/40074
# skin = details: on rats; cited from WO 00/28996
# fibroblasts = details: cited from WO 98/40074
# [1] = cited from WO 98/40074
compound,measurement,setting,value
C[C@]12CC[C@H](O)CC1=C[C@@H](O)[C@@H]1[C@@H]2CC[C@]2(C)C(=O)CC[C@@H]12 [7α-hydroxy-DHEA],viability of the human keratinocytes,human keratinocytes,increase
same,collagen content of the skin,skin,increased
same,elastin content of the skin,skin,increased
same,thickness of the dermis,skin,increased
same,proliferation of the fibroblasts,fibroblasts,increase
same,anti-free radical effects,[1],had anti-free radical effects
